{"source": "patent US9682995B2", "about": "“Amino-substituted isothiazoles” (BAYER PHARMA AKTIENGESELLSCHAFT, priority 2013, dated 2017)", "assay_in_all_cases": "Kinase Profiling (KINOMEscan)", "type_in_all_cases": "binding", "key": {"[1]": {"target": "456 kinases (of these 395 non-mutant kinases) (Homo sapiens, UniProt O15075)", "details": "DCAMKL1; 10 μM"}, "[2]": {"target": "456 kinases (of these 395 non-mutant kinases) (Homo sapiens, UniProt P00519, M351T)", "details": "ABL1(M351T)-phosphorylated; 10 μM"}, "[3]": {"target": "456 kinases (of these 395 non-mutant kinases) (Homo sapiens, UniProt P00533, L858R/T790M)", "details": "EGFR(L858R,T790M); 10 μM"}, "[4]": {"target": "456 kinases (of these 395 non-mutant kinases) (Homo sapiens, UniProt P17948)", "sequence (P17948 27-1338 limits assumed, change not shown)": "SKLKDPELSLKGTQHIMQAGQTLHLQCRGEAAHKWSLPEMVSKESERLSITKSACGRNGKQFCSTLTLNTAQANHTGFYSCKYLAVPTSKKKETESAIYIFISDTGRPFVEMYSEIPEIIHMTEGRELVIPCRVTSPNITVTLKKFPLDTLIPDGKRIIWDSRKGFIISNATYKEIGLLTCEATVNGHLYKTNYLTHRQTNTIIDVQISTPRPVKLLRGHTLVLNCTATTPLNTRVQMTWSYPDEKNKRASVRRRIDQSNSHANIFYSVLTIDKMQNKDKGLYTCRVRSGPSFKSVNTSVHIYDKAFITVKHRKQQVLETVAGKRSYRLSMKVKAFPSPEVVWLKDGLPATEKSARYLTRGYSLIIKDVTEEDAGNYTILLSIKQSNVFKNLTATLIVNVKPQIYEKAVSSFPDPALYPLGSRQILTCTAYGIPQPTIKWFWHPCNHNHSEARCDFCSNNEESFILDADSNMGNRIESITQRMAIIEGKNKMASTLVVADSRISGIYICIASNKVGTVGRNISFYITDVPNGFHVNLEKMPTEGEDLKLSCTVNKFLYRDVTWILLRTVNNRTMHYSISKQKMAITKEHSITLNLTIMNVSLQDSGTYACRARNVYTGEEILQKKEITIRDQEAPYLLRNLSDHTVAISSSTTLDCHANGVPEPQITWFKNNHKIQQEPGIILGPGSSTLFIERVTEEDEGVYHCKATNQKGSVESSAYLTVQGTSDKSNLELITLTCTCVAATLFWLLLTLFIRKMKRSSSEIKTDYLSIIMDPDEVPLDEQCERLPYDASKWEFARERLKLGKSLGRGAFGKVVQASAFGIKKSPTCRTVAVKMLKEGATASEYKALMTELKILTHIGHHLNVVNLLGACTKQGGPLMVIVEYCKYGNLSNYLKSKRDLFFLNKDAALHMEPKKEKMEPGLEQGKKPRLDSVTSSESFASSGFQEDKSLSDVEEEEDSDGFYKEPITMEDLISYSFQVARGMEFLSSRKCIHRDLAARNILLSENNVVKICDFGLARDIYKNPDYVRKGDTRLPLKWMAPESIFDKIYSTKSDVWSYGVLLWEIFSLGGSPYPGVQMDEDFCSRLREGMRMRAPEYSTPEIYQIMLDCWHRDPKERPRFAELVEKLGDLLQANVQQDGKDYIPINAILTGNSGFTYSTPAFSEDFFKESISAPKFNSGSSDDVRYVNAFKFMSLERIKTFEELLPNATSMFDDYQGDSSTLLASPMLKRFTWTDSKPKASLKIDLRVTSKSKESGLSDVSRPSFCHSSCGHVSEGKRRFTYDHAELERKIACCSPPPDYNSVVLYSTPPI", "details": "FLT1; 10 μM"}, "[5]": {"target": "456 kinases (of these 395 non-mutant kinases) (Homo sapiens, UniProt P21709)", "details": "EPHA1; 10 μM"}, "[6]": {"target": "456 kinases (of these 395 non-mutant kinases) (Homo sapiens, UniProt P35590)", "sequence (P35590 22-1138 limits assumed, change not shown)": "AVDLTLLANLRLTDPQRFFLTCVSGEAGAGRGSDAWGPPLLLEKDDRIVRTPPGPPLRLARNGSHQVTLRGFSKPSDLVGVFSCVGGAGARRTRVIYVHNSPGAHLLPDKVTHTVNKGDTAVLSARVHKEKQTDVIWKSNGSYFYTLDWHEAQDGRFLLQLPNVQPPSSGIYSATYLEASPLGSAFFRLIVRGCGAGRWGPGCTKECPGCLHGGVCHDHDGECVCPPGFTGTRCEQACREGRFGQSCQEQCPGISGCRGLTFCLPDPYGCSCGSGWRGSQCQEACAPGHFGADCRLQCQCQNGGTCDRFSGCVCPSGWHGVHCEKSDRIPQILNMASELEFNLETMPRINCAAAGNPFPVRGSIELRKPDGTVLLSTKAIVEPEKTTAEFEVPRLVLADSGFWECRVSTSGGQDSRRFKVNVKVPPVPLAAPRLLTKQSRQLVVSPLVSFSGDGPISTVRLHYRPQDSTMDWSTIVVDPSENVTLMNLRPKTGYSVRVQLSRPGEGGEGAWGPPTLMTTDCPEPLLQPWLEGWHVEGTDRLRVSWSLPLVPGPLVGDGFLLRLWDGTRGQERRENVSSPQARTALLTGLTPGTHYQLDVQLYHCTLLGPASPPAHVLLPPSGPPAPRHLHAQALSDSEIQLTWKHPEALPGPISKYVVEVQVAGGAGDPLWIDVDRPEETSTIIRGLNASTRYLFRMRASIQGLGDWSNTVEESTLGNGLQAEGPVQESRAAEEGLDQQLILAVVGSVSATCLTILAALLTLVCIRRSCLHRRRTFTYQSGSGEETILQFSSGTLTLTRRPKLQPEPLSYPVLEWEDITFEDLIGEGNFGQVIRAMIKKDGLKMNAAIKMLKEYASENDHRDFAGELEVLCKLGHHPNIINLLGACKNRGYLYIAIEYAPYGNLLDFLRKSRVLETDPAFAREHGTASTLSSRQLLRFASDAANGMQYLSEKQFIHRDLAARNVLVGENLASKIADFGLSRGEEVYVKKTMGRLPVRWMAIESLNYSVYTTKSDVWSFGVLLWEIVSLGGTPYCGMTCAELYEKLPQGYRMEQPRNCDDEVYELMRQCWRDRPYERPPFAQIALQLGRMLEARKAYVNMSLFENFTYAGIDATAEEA", "details": "TIE1; 10 μM"}, "[7]": {"target": "456 kinases (of these 395 non-mutant kinases) (Homo sapiens, UniProt P42336, C420R)", "details": "PIK3CA(C420R); 10 μM"}, "[8]": {"target": "456 kinases (of these 395 non-mutant kinases) (Homo sapiens, UniProt P42336, E542K)", "details": "PIK3CA(E542K); 10 μM"}, "[9]": {"target": "456 kinases (of these 395 non-mutant kinases) (Homo sapiens, UniProt P49761)", "details": "CLK3; 10 μM"}, "[10]": {"target": "456 kinases (of these 395 non-mutant kinases) (Homo sapiens, UniProt P50750)", "details": "CDK9; 10 μM"}, "[11]": {"target": "456 kinases (of these 395 non-mutant kinases) (Homo sapiens, UniProt P53778)", "details": "p38-gamma; 10 μM"}, "[12]": {"target": "456 kinases (of these 395 non-mutant kinases) (Homo sapiens, UniProt P53779)", "details": "JNK3; 10 μM"}, "[13]": {"target": "456 kinases (of these 395 non-mutant kinases) (Homo sapiens, UniProt Q08345)", "sequence (Q08345 19-913 limits assumed, change not shown)": "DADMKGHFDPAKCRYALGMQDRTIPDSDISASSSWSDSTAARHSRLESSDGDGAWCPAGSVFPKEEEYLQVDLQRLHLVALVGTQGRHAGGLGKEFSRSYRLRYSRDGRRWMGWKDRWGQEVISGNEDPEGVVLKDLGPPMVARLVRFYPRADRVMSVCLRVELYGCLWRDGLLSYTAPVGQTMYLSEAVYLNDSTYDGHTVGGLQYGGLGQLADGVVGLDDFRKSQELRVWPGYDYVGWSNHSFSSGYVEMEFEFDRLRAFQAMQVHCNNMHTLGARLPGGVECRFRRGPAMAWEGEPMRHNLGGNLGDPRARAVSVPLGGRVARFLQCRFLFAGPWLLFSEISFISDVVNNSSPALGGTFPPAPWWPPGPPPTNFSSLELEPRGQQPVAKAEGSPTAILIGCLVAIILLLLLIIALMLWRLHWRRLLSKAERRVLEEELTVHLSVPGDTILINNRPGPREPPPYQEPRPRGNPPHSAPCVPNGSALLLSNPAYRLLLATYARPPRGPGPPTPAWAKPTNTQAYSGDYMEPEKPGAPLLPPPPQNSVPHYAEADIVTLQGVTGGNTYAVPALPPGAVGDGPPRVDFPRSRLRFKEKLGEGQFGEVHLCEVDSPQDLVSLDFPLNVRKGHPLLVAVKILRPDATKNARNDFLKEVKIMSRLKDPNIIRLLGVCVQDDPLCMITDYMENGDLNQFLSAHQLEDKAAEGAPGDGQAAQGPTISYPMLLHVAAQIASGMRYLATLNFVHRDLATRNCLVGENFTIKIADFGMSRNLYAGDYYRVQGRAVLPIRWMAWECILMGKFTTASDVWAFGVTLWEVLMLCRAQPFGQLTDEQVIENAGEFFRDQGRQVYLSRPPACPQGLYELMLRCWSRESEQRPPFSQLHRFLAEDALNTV", "details": "DDR1; 10 μM"}, "[14]": {"target": "456 kinases (of these 395 non-mutant kinases) (Homo sapiens, UniProt Q09013)", "details": "DMPK; 10 μM"}, "[15]": {"target": "456 kinases (of these 395 non-mutant kinases) (Homo sapiens, UniProt Q13131)", "details": "AMPK-alpha1; 10 μM"}, "[16]": {"target": "456 kinases (of these 395 non-mutant kinases) (Homo sapiens, UniProt Q13177)", "details": "PAK2; 10 μM"}, "[17]": {"target": "456 kinases (of these 395 non-mutant kinases) (Homo sapiens, UniProt Q13188)", "details": "MST2; 10 μM"}, "[18]": {"target": "456 kinases (of these 395 non-mutant kinases) (Homo sapiens, UniProt Q13523)", "sequence (Q13523 2-1007 limits assumed, change not shown)": "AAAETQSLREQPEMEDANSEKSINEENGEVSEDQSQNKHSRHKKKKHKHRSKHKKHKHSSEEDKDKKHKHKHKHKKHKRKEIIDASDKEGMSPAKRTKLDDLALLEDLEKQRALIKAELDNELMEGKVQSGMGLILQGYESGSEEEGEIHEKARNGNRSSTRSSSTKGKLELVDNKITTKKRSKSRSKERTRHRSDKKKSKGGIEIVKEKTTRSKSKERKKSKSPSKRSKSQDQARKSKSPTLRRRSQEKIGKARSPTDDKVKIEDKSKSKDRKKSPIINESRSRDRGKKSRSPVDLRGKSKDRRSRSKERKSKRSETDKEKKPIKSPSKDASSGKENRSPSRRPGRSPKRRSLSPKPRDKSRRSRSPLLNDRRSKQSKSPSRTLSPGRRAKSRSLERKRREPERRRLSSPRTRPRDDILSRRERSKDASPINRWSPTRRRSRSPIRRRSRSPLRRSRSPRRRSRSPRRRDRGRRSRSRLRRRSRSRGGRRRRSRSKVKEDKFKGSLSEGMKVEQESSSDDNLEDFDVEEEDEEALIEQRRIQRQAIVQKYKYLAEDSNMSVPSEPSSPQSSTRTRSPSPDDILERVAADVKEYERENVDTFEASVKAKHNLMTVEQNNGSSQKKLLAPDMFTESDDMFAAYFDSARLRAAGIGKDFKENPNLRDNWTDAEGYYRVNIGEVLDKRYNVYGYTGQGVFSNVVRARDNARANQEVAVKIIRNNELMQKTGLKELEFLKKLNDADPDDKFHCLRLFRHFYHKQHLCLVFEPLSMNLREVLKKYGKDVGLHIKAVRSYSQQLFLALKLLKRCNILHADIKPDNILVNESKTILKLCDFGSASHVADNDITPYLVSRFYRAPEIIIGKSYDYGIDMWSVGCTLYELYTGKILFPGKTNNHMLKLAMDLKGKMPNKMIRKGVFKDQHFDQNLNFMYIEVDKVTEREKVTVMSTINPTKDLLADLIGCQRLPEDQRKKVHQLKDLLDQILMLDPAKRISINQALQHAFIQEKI", "details": "PRP4; 10 μM"}, "[19]": {"target": "456 kinases (of these 395 non-mutant kinases) (Homo sapiens, UniProt Q16288)", "details": "TRKC; 10 μM"}, "[20]": {"target": "456 kinases (of these 395 non-mutant kinases) (Homo sapiens, UniProt Q2M2I8)", "details": "AAK1; 10 μM"}, "[21]": {"target": "456 kinases (of these 395 non-mutant kinases) (Homo sapiens, UniProt Q6ZWH5)", "details": "NEK10; 10 μM"}, "[22]": {"target": "456 kinases (of these 395 non-mutant kinases) (Homo sapiens, UniProt Q7L7X3)", "details": "TAOK1; 10 μM"}, "[23]": {"target": "456 kinases (of these 395 non-mutant kinases) (Homo sapiens, UniProt Q8IWQ3)", "details": "BRSK2; 10 μM"}, "[24]": {"target": "456 kinases (of these 395 non-mutant kinases) (Homo sapiens, UniProt Q8TBX8)", "details": "PIP5K2C; 10 μM"}, "[25]": {"target": "456 kinases (of these 395 non-mutant kinases) (Homo sapiens, UniProt Q8WU08)", "sequence (Q8WU08 2-396 limits assumed, change not shown)": "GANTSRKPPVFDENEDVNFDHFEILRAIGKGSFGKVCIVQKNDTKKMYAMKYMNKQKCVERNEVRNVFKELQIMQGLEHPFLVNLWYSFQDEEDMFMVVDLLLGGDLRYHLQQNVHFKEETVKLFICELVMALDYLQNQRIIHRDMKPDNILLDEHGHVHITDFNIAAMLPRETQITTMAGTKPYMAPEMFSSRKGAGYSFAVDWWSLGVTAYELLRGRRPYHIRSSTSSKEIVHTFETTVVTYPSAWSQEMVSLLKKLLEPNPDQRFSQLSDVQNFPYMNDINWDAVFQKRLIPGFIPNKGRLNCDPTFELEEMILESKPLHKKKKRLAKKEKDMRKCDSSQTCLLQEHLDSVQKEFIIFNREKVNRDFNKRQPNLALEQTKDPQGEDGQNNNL", "details": "YANK1; 10 μM"}, "[26]": {"target": "456 kinases (of these 395 non-mutant kinases) (Homo sapiens, UniProt Q96D53)", "details": "ADCK4; 10 μM"}, "[27]": {"target": "456 kinases (of these 395 non-mutant kinases) (Homo sapiens, UniProt Q9BVS4)", "details": "RIOK2; 10 μM"}, "[28]": {"target": "456 kinases (of these 395 non-mutant kinases) (Homo sapiens, UniProt Q9HBY8)", "details": "SGK2; 10 μM"}, "[29]": {"target": "456 kinases (of these 395 non-mutant kinases) (Homo sapiens, UniProt Q9NQU5)", "details": "PAK6; 10 μM"}, "[30]": {"target": "456 kinases (of these 395 non-mutant kinases) (Homo sapiens, UniProt Q9UM73)", "details": "ALK; 10 μM"}, "[31]": {"target": "456 kinases (of these 395 non-mutant kinases) (Homo sapiens, UniProt Q9UM73, L1196M)", "details": "ALK(L1196M); 10 μM"}, "[32]": {"target": "456 kinases (of these 395 non-mutant kinases) (Homo sapiens, UniProt Q9UQ88)", "details": "CDC2L2; 10 μM"}}, "data": [{"smiles": "CCc1ccccc1NC(=O)c1c(C)nsc1Nc1cnc2cc(F)ccc2n1", "note": "[Example 20, N-(2-Ethylphenyl)-5-[(6-fluoroquinoxalin-2-yl)amino]-3-methyl-1,2-thiazole-4-carboxamide]", "values": [{"measurement": "% Ctrl @ 10 μM", "setting": "[1]", "result": 92, "unit": "% Ctrl"}, {"measurement": "% Ctrl @ 10 μM", "setting": "[2]", "result": 90, "unit": "% Ctrl"}, {"measurement": "% Ctrl @ 10 μM", "setting": "[3]", "result": 96, "unit": "% Ctrl"}, {"measurement": "% Ctrl @ 10 μM", "setting": "[4]", "result": 74, "unit": "% Ctrl"}, {"measurement": "% Ctrl @ 10 μM", "setting": "[5]", "result": 95, "unit": "% Ctrl"}, {"measurement": "% Ctrl @ 10 μM", "setting": "[6]", "result": 100, "unit": "% Ctrl"}, {"measurement": "% Ctrl @ 10 μM", "setting": "[7]", "result": 96, "unit": "% Ctrl"}, {"measurement": "% Ctrl @ 10 μM", "setting": "[8]", "result": 81, "unit": "% Ctrl"}, {"measurement": "% Ctrl @ 10 μM", "setting": "[9]", "result": 74, "unit": "% Ctrl"}, {"measurement": "% Ctrl @ 10 μM", "setting": "[10]", "result": 100, "unit": "% Ctrl"}, {"measurement": "% Ctrl @ 10 μM", "setting": "[11]", "result": 58, "unit": "% Ctrl"}, {"measurement": "% Ctrl @ 10 μM", "setting": "[12]", "result": 100, "unit": "% Ctrl"}, {"measurement": "% Ctrl @ 10 μM", "setting": "[13]", "result": 77, "unit": "% Ctrl"}, {"measurement": "% Ctrl @ 10 μM", "setting": "[14]", "result": 84, "unit": "% Ctrl"}, {"measurement": "% Ctrl @ 10 μM", "setting": "[15]", "result": 92, "unit": "% Ctrl"}, {"measurement": "% Ctrl @ 10 μM", "setting": "[16]", "result": 100, "unit": "% Ctrl"}, {"measurement": "% Ctrl @ 10 μM", "setting": "[17]", "result": 100, "unit": "% Ctrl"}, {"measurement": "% Ctrl @ 10 μM", "setting": "[18]", "result": 87, "unit": "% Ctrl"}, {"measurement": "% Ctrl @ 10 μM", "setting": "[19]", "result": 93, "unit": "% Ctrl"}, {"measurement": "% Ctrl @ 10 μM", "setting": "[20]", "result": 68, "unit": "% Ctrl"}, {"measurement": "% Ctrl @ 10 μM", "setting": "[21]", "result": 84, "unit": "% Ctrl"}, {"measurement": "% Ctrl @ 10 μM", "setting": "[22]", "result": 100, "unit": "% Ctrl"}, {"measurement": "% Ctrl @ 10 μM", "setting": "[23]", "result": 100, "unit": "% Ctrl"}, {"measurement": "% Ctrl @ 10 μM", "setting": "[24]", "result": 100, "unit": "% Ctrl"}, {"measurement": "% Ctrl @ 10 μM", "setting": "[25]", "result": 100, "unit": "% Ctrl"}, {"measurement": "% Ctrl @ 10 μM", "setting": "[26]", "result": 100, "unit": "% Ctrl"}, {"measurement": "% Ctrl @ 10 μM", "setting": "[27]", "result": 77, "unit": "% Ctrl"}, {"measurement": "% Ctrl @ 10 μM", "setting": "[28]", "result": 100, "unit": "% Ctrl"}, {"measurement": "% Ctrl @ 10 μM", "setting": "[29]", "result": 100, "unit": "% Ctrl"}, {"measurement": "% Ctrl @ 10 μM", "setting": "[30]", "result": 77, "unit": "% Ctrl"}, {"measurement": "% Ctrl @ 10 μM", "setting": "[31]", "result": 100, "unit": "% Ctrl"}, {"measurement": "% Ctrl @ 10 μM", "setting": "[32]", "result": 85, "unit": "% Ctrl"}]}]}
